Data taken from ChEMBL document CHEMBL1156354, “Anti-AIDS agents. 48.(1) Anti-HIV activity of moronic acid derivatives and the new melliferone-related triterpenoid isolated from Brazilian propolis” (J Nat Prod, 2001).
≈ marks a conversion by molar mass, not a printed value.

Columns and labels:
H9 = assay: Cytotoxicity against human H9 cells; format: cell-based
[1] = Therapeutic index, ratio of IC50 for human H9 cells to EC50 of HIV1 3B; format: cell-based; conditions: for selectivity ratio: H9 cells, HIV-1 3B, read-out: Ratio IC50/EC50; for Ratio IC50/EC50: h9
[2] = system: Human immunodeficiency virus 1; assay: Antiviral activity against HIV1 3B infected in human H9 cells assessed as inhibition of viral p24 antigen levels after 4 days by ELISA; format: functional, organism-based
[3] = Human immunodeficiency virus 1, 3B, H9, 96 h, read-out: EC50

Structure (SMILES): CC1(C)C=C2[C@H]3CC[C@@H]4[C@@]5(C)CC[C@H](OC(=O)CC(C)(C)C(=O)O)C(C)(C)[C@@H]5CC[C@@]4(C)[C@]3(C)CC[C@@]2(C(=O)O)CC1
- IC50 (H9): 18.1 µg/mL (≈ 30.9 µM)
- selectivity ratio [1]: 18
- EC50 [2, 3]: 1 µg/mL (≈ 1.71 µM)

Structure (SMILES): CCC(=O)c1ccc(O)c(OC)c1
- IC50 (H9): 18.8 µg/mL (≈ 104 µM)
- Ratio IC50/EC50 [1]: Not Active
- EC50 ([2]; h9): Not Active

Structure (SMILES): C=C(COC(C)=O)[C@H]1Cc2cc(C(C)=O)ccc2O1
- IC50 (H9): 2.07 µg/mL (≈ 7.95 µM)
- Ratio IC50/EC50 [1]: Not Active
- EC50 ([2]; h9): Not Active

Structure (SMILES): COc1ccc(/C=C/C=O)cc1OC [3,4-DIMETHOXY CINNAMALDEHYDE]
- IC50 (H9): 18.9 µg/mL (≈ 98.3 µM)
- selectivity ratio [1]: 8.62
- EC50 [2, 3]: 2.19 µg/mL (≈ 11.4 µM)

Structure (SMILES): C/C(=C/CC[C@@H](C)[C@H]1CC[C@@]2(C)C3=C(CC[C@]12C)[C@@]1(C)CCC(=O)C(C)(C)[C@@H]1CC3)C(=O)O [ANWUWEIZONIC ACID]
- IC50 (H9): 2.14 µg/mL (≈ 4.71 µM)
- Ratio IC50/EC50 [1]: Not Active
- EC50 ([2]; h9): Not Active

Structure (SMILES): C=C(C)[C@@H]1CC[C@]2(C(=O)O)CC[C@]3(C)[C@H](CC[C@@H]4[C@@]5(C)CCC(=O)C(C)(C)[C@@H]5CC[C@]43C)[C@@H]12 [BETUNOLIC ACID]
- IC50 (H9): 1.8 µg/mL (≈ 3.96 µM)
- selectivity ratio [1]: 8
- EC50 [2, 3]: 0.22 µg/mL (≈ 0.484 µM)

Structure (SMILES): CC1(C)CC[C@@]23CC[C@]4(C)[C@@](C=C[C@@H]5[C@@]6(C)CCC(=O)C(C)(C)[C@@H]6CC[C@]54C)(OC2=O)[C@@H]3C1 [MELLIFERONE]
- IC50 (H9): 0.205 µg/mL (≈ 0.453 µM)
- Ratio IC50/EC50 [1]: Not Active
- EC50 ([2]; h9): Not Active

Structure (SMILES): CC1(C)C=C2[C@H]3CC[C@@H]4[C@@]5(C)CC[C@H](O)C(C)(C)[C@@H]5CC[C@@]4(C)[C@]3(C)CC[C@@]2(C(=O)O)CC1 [MOROLIC ACID]
- IC50 (H9): 22.1 µg/mL (≈ 48.4 µM)
- selectivity ratio [1]: 8.17
- EC50 [2, 3]: 2.7 µg/mL (≈ 5.91 µM)

Structure (SMILES): CC1(C)C=C2[C@H]3CC[C@@H]4[C@@]5(C)CCC(=O)C(C)(C)[C@@H]5CC[C@@]4(C)[C@]3(C)CC[C@@]2(C(=O)O)CC1 [MORONIC ACID]
- IC50 (H9): 18.6 µg/mL (≈ 40.9 µM)
- selectivity ratio [1]: > 186
- EC50 [2, 3]: < 0.1 µg/mL

Structure (SMILES): COc1cc(C=O)ccc1O [VANILLIN]
- IC50 (H9): > 100 µg/mL
- Ratio IC50/EC50 [1]: Not Active
- EC50 ([2]; h9): Not Active

Structure (SMILES): Cc1cn([C@H]2C[C@H](N=[N+]=[N-])[C@@H](CO)O2)c(=O)[nH]c1=O [ZIDOVUDINE]
- EC50 [2, 3]: 0.00289 µg/mL (≈ 0.0108 µM)
